From patent US20250025438A1, “Derivative of aspartic acid and use thereof in treatment of metabolic diseases such as hepatic fibrosis and non-alcoholic hepatitis” (SHENZHEN JINGTAI TECHNOLOGY CO., LTD., priority 2021, published 2025)
Where a name gives a salt, the structure may show the parent alone.

Experiments:
Assay type in all cases: cell-based
[1] = tested on: liver fibrosis-related genes; experiment: Semi-activated LX2 cells, qPCR: liver fibrosis-related genes overall; conditions: 48 hours, Q-PCR, Table 2
Procedure: Test compounds were added to the LX-2 cells respectively, and total RNA in the cells was extracted 48 hours later. This experiment was performed strictly in accordance with the instructions of the Total RNA Kit. The steps were as follows (note: this experiment was performed on ice throughout the entire process, and special RNase-free tips were used throughout the entire process): • 1) The 12-well cell culture plate was taken out from the incubator, the cell culture medium was discarded, the cells were washed twice with 1 mL of 1×PBS, and a negative pressure suction device was used to fully remove PBS; • 2) 350 μL of TRK Lysis Buffer mixture/well was prepared as needed (mixture preparation method: 1 mL of TRKLysis Buffer+20 μL of β-mercaptoethanol), vortexed and mixed well. 350 μL was added to each well of the 12-well cell culture plate, and allowed to stand at room temperature for 5 minutes to fully lyse the cells; • 3) 70% ethanol/well was prepared as needed, vortexed and mixed well. 350 μL was added to each well of the 12-well cell culture plate, mixed well by shaking, and transferred to the spin column (spin column+collection tube were assembled); • 4) Centrifugation was performed at 4° C., 12000 g for 60 sec. The waste liquid was discarded after centrifugation, while the spin column was kept; • 5) 500 μL of RNA Wash Buffer I was added, centrifuged at 4° C., 12000 g for 60 sec, the waste liquid was discarded after centrifugation, and the collection column was kept; • 6) 500 μL of RNA Wash Buffer II (confirmed that ethanol had been added) was added, centrifuged at 4° C., 12000 g for 60 sec, the waste liquid was discarded after centrifugation, and the collection column was kept; • 7) step 6) was repeated once again, centrifugation was performed at 4° C., 12000 g for 90 sec, the waste liquid was discarded after centrifugation, and the collection column was kept; • 8) Centrifugation was performed at 4° C., 12000 g for 120 sec to ensure that the spin column was fully dried; • 9) The dried spin column was inserted into a new 1.5 mL EP tube, and 30 μL of DEPC water was added to the membrane in the center of the spin column. It should be careful not to touch the EP tube cover in this step. It was allowed to stand at room temperature for 5 minutes to ensure that the RNA was fully dissolved in DEPC water. Centrifugation was performed at 4° C., 12000 g for 60 sec, and the EP tube was kept; • 10) NanoDrop ultra-micro-volume spectrophotometer was used to detect RNA concentration;
5.3 Q-PCR detection of target gene expression: According to the instructions of Power SYBR® Green PCR Master Mix, the specific operations were as follows:
LX2 cells were passaged and plated normally. After adherent growth for 12 hours, 50 µM of the test compound was added. After 48 hours, the cells were collected, total RNA was extracted, and Q-PCR was used to detect the changes in the mRNA expression levels of liver fibrosis-related genes (ACTA2 encoding α-SMA, COL1A1 and COLIA2 encoding collagen I, COL3A1 encoding collagen III, SMAD3 encoding Smad3) and inflammation-related genes (IL1β encoding IL-1β, TNFα encoding TNFα) (for specific methods, see 5. Q-PCR detection of target gene expression as described above). α-SMA was a marker of hepatic stellate cell activation, and collagen I and collagen III were the main components of extracellular matrix deposition.

IL-1β = experiment: In vitro efficacy in semi-activated LX2 cells, qPCR: IL-1β; conditions: Homo sapiens, LX-2, 50 µM, 48 hours, Q-PCR, read-out: IL-1β mRNA inhibition rate
collagen I = experiment: Semi-activated LX2 cells, Western blot: collagen I protein; conditions: 50-400 μM, 48 hours, FIG. 1, vs 50 μM aspartic acid
α-SMA = experiment: Semi-activated LX2 cells, Western blot: α-SMA protein; conditions: 50-400 μM, 48 hours, FIG. 2, vs 50 μM aspartic acid
Smad3 = experiment: In vitro efficacy in semi-activated LX2 cells, qPCR: Smad3; conditions: 48 hours, Q-PCR; for inhibition at 50 µM: Homo sapiens, LX-2, 50 µM, read-out: Smad3 mRNA inhibition rate; for inhibition of the expression of Smad3 at the mRNA level: Table 2
Outline: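 Plate LX2 cells; after 12 h adherence add compound (50 µM); harvest at 48 h; extract total RNA on ice; make cDNA; run SYBR Green Q-PCR, check amplification and melt curves, analyse by relative quantification.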

COL1A1 = experiment: In vitro efficacy in semi-activated LX2 cells, qPCR: COL1A1; conditions: Homo sapiens, LX-2, 50 µM, 48 hours, Q-PCR, read-out: COL1A1 mRNA inhibition rate
COL3A1 = experiment: In vitro efficacy in semi-activated LX2 cells, qPCR: COL3A1; conditions: Homo sapiens, LX-2, 50 µM, 48 hours, Q-PCR, read-out: COL3A1 mRNA inhibition rate
TNF-α = experiment: In vitro efficacy in semi-activated LX2 cells, qPCR: TNF-α; conditions: Homo sapiens, LX-2, 48 hours, Q-PCR, read-out: TNF-α mRNA inhibition rate

Which results are given for `N[C@@H](CCC(=O)O)C(=O)O` [Compound 47]?
inhibition of the mRNA expression levels of liver fibrosis-related genes (overall) [1]: stronger effects; inhibition at 50 µM (IL-1β): 1 to 10%; inhibitory effect on collagen I protein expression as compared to ASP (collagen I): stronger inhibitory effects; inhibitory effect on α-SMA protein as compared to ASP (α-SMA): stronger inhibitory effects; inhibition at 50 µM (Smad3): 1 to 10%; inhibition at 50 µM (COL1A1): 25 to 50%; inhibition at 50 µM (COL3A1): 10 to 25%; inhibition at 50 µM (TNF-α): 10 to 25%

Which “inhibition of the mRNA expression levels of liver fibrosis-related genes (overall)” value [1] does the source give for `COC(=O)C[C@H](N)C(=O)O` [Compound 6] here?
The value was “stronger effects”.

And the inhibition at 50 µM (IL-1β)?
Its inhibition at 50 µM is 1 to 10%.

What about the “inhibitory effect on collagen I protein expression as compared to ASP” value (collagen I) of the same molecule?
Its value is “stronger inhibitory effects”.

What about the “inhibitory effect on α-SMA protein as compared to ASP” value (α-SMA) of the same molecule?
The value was “stronger inhibitory effects”.

And the “inhibition of the expression of Smad3 at the mRNA level” value (Smad3)?
Its value is “could inhibit”.

What about the inhibition at 50 µM (Smad3) of the same molecule?
The inhibition at 50 µM was 25 to 50%.

And the inhibition at 50 µM (COL1A1)?
Its inhibition at 50 µM is 25 to 50%.

What about the inhibition at 50 µM (COL3A1) of the same molecule?
The inhibition at 50 µM was 25 to 50%.

What about the inhibition at 50 µM (TNF-α) of the same molecule?
Its inhibition at 50 µM is 10 to 25%.

What does the source list for `COC(=O)[C@@H](N)CC(=O)O` [Compound 4]?
inhibition of the mRNA expression levels of liver fibrosis-related genes (overall) [1]: stronger effects; inhibition at 50 µM (IL-1β): 1 to 10%; inhibitory effect on α-SMA protein as compared to ASP (α-SMA): stronger inhibitory effects; inhibition of the expression of Smad3 at the mRNA level (Smad3): could inhibit; inhibition at 50 µM (Smad3): 25 to 50%; inhibition at 50 µM (COL1A1): 25 to 50%; inhibition at 50 µM (COL3A1): 25 to 50%; inhibition at 50 µM (TNF-α): 25 to 50%

How did the “inhibition of the mRNA expression levels of liver fibrosis-related genes (overall)” value [1] turn out when `COC(=O)C[C@H](N)C(=O)OCOC(=O)[C@@H](N)CC(=O)OC` [Compound 54, 4-dimethyl O′1,01-methylene (2S,2'S)-bis (2-aminosuccinate) hydrochloride] was run?
The value was “stronger effects”.

What about the “inhibitory effect on collagen I protein expression as compared to ASP” value (collagen I) of the same molecule?
Its value is “stronger inhibitory effects”.

What about the inhibition at 50 µM (COL1A1) of the same molecule?
Its inhibition at 50 µM is 25 to 50%.

What about the inhibition at 50 µM (COL3A1) of the same molecule?
The inhibition at 50 µM was 10 to 25%.

What about the inhibition at 50 µM (TNF-α) of the same molecule?
Its inhibition at 50 µM is 1 to 10%.
